Laboratory results taken from PubChem BioAssay AID1963965 (Molecular Pharmacology Branch, DTP, NCI, 2024).
pIC50: −log10 of the molar value.

Tested on: 996289-038-R-J1-PDC spheroid viability
Test: Anticancer human tumor 996289-038-R-J1-PDC patient-derived colon adenocarcinoma cell line growth inhibition [PI3K]
Conditions: spheroids with HUVEC and MSC; for pIC50: curve of first compound; for viability, T/C: stronger effect = lower value
How it was run: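 We assembled tumor spheroids that included a stromal compartment of HUVEC and MSCs, then exposed them to targeted agents alone and together with PI3K pathway inhibitors. Concentration series descended by half-log from clinically achievable Cmax levels. Viability served as the endpoint.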

[1] = second compound 0.00316 µM, first compound 0.0316 µM
[2] = second compound 0.00316 µM, first compound 0.1 µM
[3] = second compound 0.00316 µM, first compound 0.316 µM
[4] = second compound 0.00316 µM, first compound 1 µM
[5] = second compound 0.00316 µM, first compound 3.16 µM
[6] = second compound 0.00316 µM, first compound 10 µM
[7] = second compound 0.01 µM, first compound 0.0316 µM
[8] = second compound 0.01 µM, first compound 0.1 µM
[9] = second compound 0.01 µM, first compound 0.316 µM
[10] = second compound 0.01 µM, first compound 1 µM
[11] = second compound 0.01 µM, first compound 3.16 µM
[12] = second compound 0.01 µM, first compound 10 µM
[13] = second compound 0.0316 µM, first compound 0.0316 µM
[14] = second compound 0.0316 µM, first compound 0.1 µM
[15] = second compound 0.0316 µM, first compound 0.316 µM
[16] = second compound 0.0316 µM, first compound 1 µM
[17] = second compound 0.0316 µM, first compound 3.16 µM
[18] = second compound 0.0316 µM, first compound 10 µM
[19] = second compound 0.1 µM, first compound 0.0316 µM
[20] = second compound 0.1 µM, first compound 0.1 µM
[21] = second compound 0.1 µM, first compound 0.316 µM
[22] = second compound 0.1 µM, first compound 1 µM
[23] = second compound 0.1 µM, first compound 3.16 µM
[24] = second compound 0.1 µM, first compound 10 µM
[25] = second compound 0.316 µM, first compound 0.0316 µM
[26] = second compound 0.316 µM, first compound 0.1 µM
[27] = second compound 0.316 µM, first compound 0.316 µM
[28] = second compound 0.316 µM, first compound 1 µM
[29] = second compound 0.316 µM, first compound 3.16 µM
[30] = second compound 0.316 µM, first compound 10 µM
[31] = second compound 1 µM, first compound 0.0316 µM
[32] = second compound 1 µM, first compound 0.1 µM
[33] = second compound 1 µM, first compound 0.316 µM
[34] = second compound 1 µM, first compound 1 µM
[35] = second compound 1 µM, first compound 3.16 µM
[36] = second compound 1 µM, first compound 10 µM
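Also: spheroids exposed to compounds for seven days before viability read.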
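For viability, T/C in this document: luminescence used as a proxy for viable cell amount; percent viability relative to DMSO vehicle control as 100%.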

`Cn1ncc(Cl)c1-c1cc(C(=O)NC(CN)Cc2cccc(F)c2)sc1Cl` (stereo unspecified) + COc1c(OCCCN2CCOCC2)ccc2c3n(c(=NC(=O)c4cnc(N)nc4)nc12)CCN3 gave a pIC50 (second compound 0.00316 µM) of 5.30, a pIC50 (second compound 0.01 µM) of 5.55 and a pIC50 (second compound 0.0316 µM) of 5.76. For the same molecule, the pIC50 (second compound 0.1 µM) was 6.67, the pIC50 (second compound 0.316 µM) was > 7.50 and the pIC50 (second compound 1 µM) was > 7.50. The viability, T/C [1] was 99.4%, the viability, T/C [2] was 93.6% and the viability, T/C [3] was 82%. The viability, T/C [4] was 73.2%, the viability, T/C [5] was 56.8% and the viability, T/C [6] was 39.7%. It also gave a viability, T/C [7] of 92.4%, a viability, T/C [8] of 87.1% and a viability, T/C [9] of 74.2%. For the same molecule, the viability, T/C [10] was 59.9%, the viability, T/C [11] was 54.8% and the viability, T/C [12] was 26.7%. It also gave a viability, T/C [13] of 81.6%, a viability, T/C [14] of 66.5% and a viability, T/C [15] of 70.9%. It also gave a viability, T/C [16] of 62%, a viability, T/C [17] of 37.6% and a viability, T/C [18] of 23.7%. The viability, T/C [19] was 60.3%, the viability, T/C [20] was 59.4% and the viability, T/C [21] was 44.6%. The viability, T/C [22] was 37.3%, the viability, T/C [23] was 31.3% and the viability, T/C [24] was 20.5%. The viability, T/C [25] was 34.8%, the viability, T/C [26] was 33% and the viability, T/C [27] was 32.8%. For the same molecule, the viability, T/C [28] was 32.3%, the viability, T/C [29] was 30.5% and the viability, T/C [30] was 15.1%. It also gave a viability, T/C [31] of 18.3%, a viability, T/C [32] of 19.7% and a viability, T/C [33] of 17%. For the same molecule, the viability, T/C [34] was 23.1%, the viability, T/C [35] was 20.1% and the viability, T/C [36] was 11%.
With `CC(Cn1ccc(-c2ccc(C#N)c(Cl)c2)n1)NC(=O)c1cc(C(C)O)[nH]n1` (stereo unspecified) + CC(Nc1ccc2c(c1)OCCn1cc(N3C(=O)OCC3C(F)F)nc1-2)C(N)=O the pIC50 (second compound 0.00316 µM) was < 5.00, the pIC50 (second compound 0.01 µM) was < 5.00 and the pIC50 (second compound 0.0316 µM) was < 5.00. For the same molecule, the pIC50 (second compound 0.1 µM) was < 5.00, the pIC50 (second compound 0.316 µM) was < 5.00 and the pIC50 (second compound 1 µM) was < 5.00. For the same molecule, the viability, T/C [1] was 86%, the viability, T/C [2] was 108% and the viability, T/C [3] was 98.5%. The viability, T/C [4] was 112%, the viability, T/C [5] was 96% and the viability, T/C [6] was 97.4%. It also gave a viability, T/C [7] of 92.6%, a viability, T/C [8] of 98.4% and a viability, T/C [9] of 110%. The viability, T/C [10] was 100%, the viability, T/C [11] was 96% and the viability, T/C [12] was 87.1%. It also gave a viability, T/C [13] of 96.8%, a viability, T/C [14] of 101% and a viability, T/C [15] of 89.7%. It also gave a viability, T/C [16] of 93.7%, a viability, T/C [17] of 93.8% and a viability, T/C [18] of 79.2%. For the same molecule, the viability, T/C [19] was 78%, the viability, T/C [20] was 79.4% and the viability, T/C [21] was 89.1%. It also gave a viability, T/C [22] of 82.7%, a viability, T/C [23] of 97.1% and a viability, T/C [24] of 76.7%. For the same molecule, the viability, T/C [25] was 70.2%, the viability, T/C [26] was 73.2% and the viability, T/C [27] was 66.7%. It also gave a viability, T/C [28] of 73.5%, a viability, T/C [29] of 66.7% and a viability, T/C [30] of 72%. For the same molecule, the viability, T/C [31] was 55%, the viability, T/C [32] was 55.1% and the viability, T/C [33] was 68.9%. It also gave a viability, T/C [34] of 63.1%, a viability, T/C [35] of 58% and a viability, T/C [36] of 58.6%.
In the case of `C#Cc1c(F)ccc2cc(O)cc(-c3ncc4c(N5CC6CCC(C5)N6)nc(OCC56CCCN5CC(F)C6)nc4c3F)c12` (stereo unspecified) + CC(Nc1ccc2c(c1)OCCn1cc(N3C(=O)OCC3C(F)F)nc1-2)C(N)=O, the pIC50 (second compound 0.00316 µM) was 5.84, the pIC50 (second compound 0.01 µM) was 6.07 and the pIC50 (second compound 0.0316 µM) was 6.19. It also gave a pIC50 (second compound 0.1 µM) of 6.46, a pIC50 (second compound 0.316 µM) of 6.77 and a pIC50 (second compound 1 µM) of 7.11. It also gave a viability, T/C [1] of 86%, a viability, T/C [2] of 81.2% and a viability, T/C [3] of 67.4%. It also gave a viability, T/C [4] of 52%, a viability, T/C [5] of 45% and a viability, T/C [6] of 34.9%. For the same molecule, the viability, T/C [7] was 89%, the viability, T/C [8] was 80.6% and the viability, T/C [9] was 57.7%. The viability, T/C [10] was 52.6%, the viability, T/C [11] was 39.8% and the viability, T/C [12] was 41.1%. It also gave a viability, T/C [13] of 87.5%, a viability, T/C [14] of 83.2% and a viability, T/C [15] of 59.6%. It also gave a viability, T/C [16] of 42.5%, a viability, T/C [17] of 44.2% and a viability, T/C [18] of 30%. It also gave a viability, T/C [19] of 75%, a viability, T/C [20] of 69.6% and a viability, T/C [21] of 50.2%. The viability, T/C [22] was 35.9%, the viability, T/C [23] was 32% and the viability, T/C [24] was 26.1%. It also gave a viability, T/C [25] of 72.2%, a viability, T/C [26] of 57.1% and a viability, T/C [27] of 40.8%. The viability, T/C [28] was 33.7%, the viability, T/C [29] was 29.6% and the viability, T/C [30] was 21.6%. The viability, T/C [31] was 56.8%, the viability, T/C [32] was 48.8% and the viability, T/C [33] was 39%. It also gave a viability, T/C [34] of 29.3%, a viability, T/C [35] of 26.4% and a viability, T/C [36] of 17.9%.
